According to ChEMBL document CHEMBL4229333, “Effects of rigidity on the selectivity of protein kinase inhibitors” (Eur J Med Chem, 2018):
≈ marks a conversion by molar mass, not a printed value.

What was measured:
[1] = target: Tyrosine-protein kinase Tec (Homo sapiens) (UniProt P42680); assay: Inhibition of TEC (unknown origin) at 1 uM by mobility shift microfluidics platform based assay relative to control
[2] = target: Vascular endothelial growth factor receptor 3 (Homo sapiens) (UniProt P35916); assay: Inhibition of FLT4 (unknown origin) at 1 uM by mobility shift microfluidics platform based assay relative to control
Chain of Vascular endothelial growth factor receptor 3 (Homo sapiens) (P35916 whole entry, canonical isoform): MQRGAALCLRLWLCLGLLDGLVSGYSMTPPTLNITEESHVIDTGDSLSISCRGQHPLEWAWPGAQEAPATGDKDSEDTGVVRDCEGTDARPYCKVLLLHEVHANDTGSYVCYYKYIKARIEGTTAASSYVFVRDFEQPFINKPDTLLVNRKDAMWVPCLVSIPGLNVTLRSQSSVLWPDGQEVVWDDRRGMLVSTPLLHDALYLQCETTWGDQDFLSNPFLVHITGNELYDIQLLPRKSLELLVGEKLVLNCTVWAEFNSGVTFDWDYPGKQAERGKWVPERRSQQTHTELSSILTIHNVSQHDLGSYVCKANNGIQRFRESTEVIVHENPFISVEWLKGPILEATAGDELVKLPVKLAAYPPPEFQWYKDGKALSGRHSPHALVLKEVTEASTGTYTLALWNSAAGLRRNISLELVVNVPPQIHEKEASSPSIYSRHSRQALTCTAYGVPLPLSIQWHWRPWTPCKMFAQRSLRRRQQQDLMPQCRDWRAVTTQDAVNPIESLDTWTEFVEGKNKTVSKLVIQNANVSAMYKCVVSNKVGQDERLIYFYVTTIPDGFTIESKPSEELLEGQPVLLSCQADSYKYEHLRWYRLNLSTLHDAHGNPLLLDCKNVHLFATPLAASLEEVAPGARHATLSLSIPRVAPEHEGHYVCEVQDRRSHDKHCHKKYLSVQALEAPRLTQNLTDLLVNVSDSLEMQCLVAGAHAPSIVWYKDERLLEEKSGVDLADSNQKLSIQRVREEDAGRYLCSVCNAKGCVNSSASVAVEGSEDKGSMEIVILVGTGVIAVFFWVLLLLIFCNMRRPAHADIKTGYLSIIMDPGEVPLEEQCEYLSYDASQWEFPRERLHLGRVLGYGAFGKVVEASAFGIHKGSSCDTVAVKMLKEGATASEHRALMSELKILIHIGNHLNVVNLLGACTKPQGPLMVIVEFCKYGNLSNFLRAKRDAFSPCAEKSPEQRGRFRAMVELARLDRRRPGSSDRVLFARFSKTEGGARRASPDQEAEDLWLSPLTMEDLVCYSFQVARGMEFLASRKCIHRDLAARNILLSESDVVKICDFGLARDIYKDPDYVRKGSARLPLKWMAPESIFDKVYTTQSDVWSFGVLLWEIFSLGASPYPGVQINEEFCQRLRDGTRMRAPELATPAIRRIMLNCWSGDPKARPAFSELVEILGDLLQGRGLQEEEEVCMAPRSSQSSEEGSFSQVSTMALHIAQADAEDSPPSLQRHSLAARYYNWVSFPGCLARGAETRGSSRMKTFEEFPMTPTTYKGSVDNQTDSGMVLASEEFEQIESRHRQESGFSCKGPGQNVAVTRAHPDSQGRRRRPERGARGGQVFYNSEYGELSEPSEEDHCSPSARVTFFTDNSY

[3] = target: Casein kinase I isoform gamma-2 (Homo sapiens) (UniProt P78368); assay: Inhibition of CK1-gamma2 (unknown origin) at 1 uM by mobility shift microfluidics platform based assay relative to control
[4] = target: Ephrin type-A receptor 2 (Homo sapiens) (UniProt P29317); assay: Inhibition of EPH-A2 (unknown origin) at 1 uM by mobility shift microfluidics platform based assay relative to control
[5] = target: Serine/threonine-protein kinase Sgk3 (Homo sapiens) (UniProt Q96BR1); assay: Inhibition of SGK3 (unknown origin) at 1 uM by mobility shift microfluidics platform based assay relative to control
Chain of Serine/threonine-protein kinase Sgk3 (Homo sapiens) (Q96BR1 whole entry): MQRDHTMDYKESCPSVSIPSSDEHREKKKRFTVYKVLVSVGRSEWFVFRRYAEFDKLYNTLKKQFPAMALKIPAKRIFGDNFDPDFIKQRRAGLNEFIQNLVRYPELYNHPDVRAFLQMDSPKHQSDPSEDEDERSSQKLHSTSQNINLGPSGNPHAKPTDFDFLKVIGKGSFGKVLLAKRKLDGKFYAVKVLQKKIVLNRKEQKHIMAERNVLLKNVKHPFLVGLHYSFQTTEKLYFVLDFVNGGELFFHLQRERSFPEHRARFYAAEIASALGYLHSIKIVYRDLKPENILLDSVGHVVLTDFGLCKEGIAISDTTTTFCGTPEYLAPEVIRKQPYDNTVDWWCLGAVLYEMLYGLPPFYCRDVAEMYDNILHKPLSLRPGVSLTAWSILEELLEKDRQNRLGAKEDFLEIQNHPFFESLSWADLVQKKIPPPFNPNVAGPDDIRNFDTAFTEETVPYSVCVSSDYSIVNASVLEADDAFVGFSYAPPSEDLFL

[6] = target: Leukocyte tyrosine kinase receptor (Homo sapiens) (UniProt P29376); assay: Inhibition of LTK (unknown origin) at 1 uM by mobility shift microfluidics platform based assay relative to control
[7] = target: Mitogen-activated protein kinase kinase kinase 7 (Homo sapiens) (UniProt O43318); assay: Inhibition of TAK1 (unknown origin) at 1 uM by mobility shift microfluidics platform based assay relative to control
[8] = target: Serine/threonine-protein kinase TAO3 (Homo sapiens) (UniProt Q9H2K8); assay: Inhibition of TAOK3 (unknown origin) at 1 uM by mobility shift microfluidics platform based assay relative to control
[9] = target: Inhibitor of nuclear factor kappa-B kinase subunit alpha (Homo sapiens) (UniProt O15111); assay: Inhibition of IKK-alpha (unknown origin) at 1 uM by mobility shift microfluidics platform based assay relative to control
[10] = target: RAC-gamma serine/threonine-protein kinase (Homo sapiens) (UniProt Q9Y243); assay: Inhibition of AKT3 (unknown origin) at 1 uM by mobility shift microfluidics platform based assay relative to control
[11] = target: Death-associated protein kinase 1 (Homo sapiens) (UniProt P53355); assay: Inhibition of DAPK1 (unknown origin) at 1 uM by mobility shift microfluidics platform based assay relative to control
[12] = target: STE20-like serine/threonine-protein kinase (Homo sapiens) (UniProt Q9H2G2); assay: Inhibition of SLK (unknown origin) at 1 uM by mobility shift microfluidics platform based assay relative to control
[13] = target: MAP/microtubule affinity-regulating kinase 3 (Homo sapiens) (UniProt P27448); assay: Inhibition of MARK3 (unknown origin) at 1 uM by mobility shift microfluidics platform based assay relative to control
[14] = target: Focal adhesion kinase 1 (Homo sapiens) (UniProt Q05397); assay: Inhibition of FAK (unknown origin) at 1 uM by mobility shift microfluidics platform based assay relative to control
[15] = target: Tyrosine-protein kinase BTK (Homo sapiens) (UniProt Q06187); assay: Inhibition of BTK (unknown origin) at 1 uM by mobility shift microfluidics platform based assay relative to control
Chain of Tyrosine-protein kinase BTK (Homo sapiens) (Q06187 whole entry): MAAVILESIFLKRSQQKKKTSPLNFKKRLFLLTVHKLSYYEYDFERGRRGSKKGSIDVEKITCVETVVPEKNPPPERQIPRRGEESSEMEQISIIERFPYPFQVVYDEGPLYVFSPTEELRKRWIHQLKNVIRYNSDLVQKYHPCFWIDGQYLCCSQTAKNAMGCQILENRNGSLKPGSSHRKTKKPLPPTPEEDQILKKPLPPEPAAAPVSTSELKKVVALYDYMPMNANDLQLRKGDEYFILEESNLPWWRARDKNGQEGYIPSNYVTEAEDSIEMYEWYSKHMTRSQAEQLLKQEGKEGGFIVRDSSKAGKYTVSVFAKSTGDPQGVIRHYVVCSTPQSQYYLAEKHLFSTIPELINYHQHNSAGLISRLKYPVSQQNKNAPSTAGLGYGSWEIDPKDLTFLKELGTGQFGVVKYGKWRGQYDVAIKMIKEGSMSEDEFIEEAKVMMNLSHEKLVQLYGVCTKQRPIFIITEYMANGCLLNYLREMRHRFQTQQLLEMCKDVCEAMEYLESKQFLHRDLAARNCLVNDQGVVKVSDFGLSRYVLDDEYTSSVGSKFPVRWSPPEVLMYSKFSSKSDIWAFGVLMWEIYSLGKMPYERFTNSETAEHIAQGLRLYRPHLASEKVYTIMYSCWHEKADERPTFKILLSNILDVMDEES

[16] = target: Protein kinase C theta type (Homo sapiens) (UniProt Q04759); assay: Inhibition of PKC-theta (unknown origin) at 1 uM by mobility shift microfluidics platform based assay relative to control
[17] = target: Phosphorylase b kinase gamma catalytic chain, liver/testis isoform (Homo sapiens) (UniProt P15735); assay: Inhibition of PHK-gamma2 (unknown origin) at 1 uM by mobility shift microfluidics platform based assay relative to control
[18] = target: ALK tyrosine kinase receptor (Homo sapiens) (UniProt Q9UM73); assay: Inhibition of ALK (unknown origin) at 1 uM by mobility shift microfluidics platform based assay relative to control
[19] = target: Protein-tyrosine kinase 6 (Homo sapiens) (UniProt Q13882); assay: Inhibition of BRK (unknown origin) at 1 uM by mobility shift microfluidics platform based assay relative to control
[20] = target: Serine/threonine-protein kinase B-raf (Homo sapiens, UniProt P15056, V600E); assay: Inhibition of BRAF V600E mutant (unknown origin) after 20 mins by immunoblotting assay
[21] = target: Ribosomal protein S6 kinase alpha-1 (Homo sapiens) (UniProt Q15418); assay: Inhibition of RSK1 (unknown origin) at 1 uM by mobility shift microfluidics platform based assay relative to control
[22] = target: Testis-specific serine/threonine-protein kinase 1 (Homo sapiens) (UniProt Q9BXA7); assay: Inhibition of TSSK1 (unknown origin) at 1 uM by mobility shift microfluidics platform based assay relative to control
[23] = Solubility of compound at 37 degC incubated for 24 hrs by HPLC method; type: physicochemical
[24] = target: Ephrin type-A receptor 5 (Homo sapiens) (UniProt P54756); assay: Inhibition of EPH-A5 (unknown origin) at 1 uM by mobility shift microfluidics platform based assay relative to control
[25] = target: Insulin-like growth factor 1 receptor (Homo sapiens) (UniProt P08069); assay: Inhibition of IGF1R (unknown origin) at 1 uM by mobility shift microfluidics platform based assay relative to control
[26] = target: Protein kinase C gamma type (Homo sapiens) (UniProt P05129); assay: Inhibition of PKC-gamma (unknown origin) at 1 uM by mobility shift microfluidics platform based assay relative to control
[27] = target: MAP/microtubule affinity-regulating kinase 4 (Homo sapiens) (UniProt Q96L34); assay: Inhibition of MARK4 (unknown origin) at 1 uM by mobility shift microfluidics platform based assay relative to control
[28] = target: Interleukin-1 receptor-associated kinase 4 (Homo sapiens) (UniProt Q9NWZ3); assay: Inhibition of IRAK4 (unknown origin) at 1 uM by mobility shift microfluidics platform based assay relative to control
[29] = target: cAMP-dependent protein kinase catalytic subunit alpha (Homo sapiens) (UniProt P17612); assay: Inhibition of PRKACA (unknown origin) at 1 uM by mobility shift microfluidics platform based assay relative to control
[30] = target: Dual specificity tyrosine-phosphorylation-regulated kinase 4 (Homo sapiens) (UniProt Q9NR20); assay: Inhibition of DYRK4 (unknown origin) at 1 uM by mobility shift microfluidics platform based assay relative to control
[31] = target: Serine/threonine-protein kinase D3 (Homo sapiens) (UniProt O94806); assay: Inhibition of PRKD3 (unknown origin) at 1 uM by mobility shift microfluidics platform based assay relative to control
[32] = target: Serine/threonine-protein kinase MRCK beta (Homo sapiens) (UniProt Q9Y5S2); assay: Inhibition of MRCK-beta (unknown origin) at 1 uM by mobility shift microfluidics platform based assay relative to control
Chain of Serine/threonine-protein kinase MRCK beta (Homo sapiens) (Q9Y5S2 whole entry): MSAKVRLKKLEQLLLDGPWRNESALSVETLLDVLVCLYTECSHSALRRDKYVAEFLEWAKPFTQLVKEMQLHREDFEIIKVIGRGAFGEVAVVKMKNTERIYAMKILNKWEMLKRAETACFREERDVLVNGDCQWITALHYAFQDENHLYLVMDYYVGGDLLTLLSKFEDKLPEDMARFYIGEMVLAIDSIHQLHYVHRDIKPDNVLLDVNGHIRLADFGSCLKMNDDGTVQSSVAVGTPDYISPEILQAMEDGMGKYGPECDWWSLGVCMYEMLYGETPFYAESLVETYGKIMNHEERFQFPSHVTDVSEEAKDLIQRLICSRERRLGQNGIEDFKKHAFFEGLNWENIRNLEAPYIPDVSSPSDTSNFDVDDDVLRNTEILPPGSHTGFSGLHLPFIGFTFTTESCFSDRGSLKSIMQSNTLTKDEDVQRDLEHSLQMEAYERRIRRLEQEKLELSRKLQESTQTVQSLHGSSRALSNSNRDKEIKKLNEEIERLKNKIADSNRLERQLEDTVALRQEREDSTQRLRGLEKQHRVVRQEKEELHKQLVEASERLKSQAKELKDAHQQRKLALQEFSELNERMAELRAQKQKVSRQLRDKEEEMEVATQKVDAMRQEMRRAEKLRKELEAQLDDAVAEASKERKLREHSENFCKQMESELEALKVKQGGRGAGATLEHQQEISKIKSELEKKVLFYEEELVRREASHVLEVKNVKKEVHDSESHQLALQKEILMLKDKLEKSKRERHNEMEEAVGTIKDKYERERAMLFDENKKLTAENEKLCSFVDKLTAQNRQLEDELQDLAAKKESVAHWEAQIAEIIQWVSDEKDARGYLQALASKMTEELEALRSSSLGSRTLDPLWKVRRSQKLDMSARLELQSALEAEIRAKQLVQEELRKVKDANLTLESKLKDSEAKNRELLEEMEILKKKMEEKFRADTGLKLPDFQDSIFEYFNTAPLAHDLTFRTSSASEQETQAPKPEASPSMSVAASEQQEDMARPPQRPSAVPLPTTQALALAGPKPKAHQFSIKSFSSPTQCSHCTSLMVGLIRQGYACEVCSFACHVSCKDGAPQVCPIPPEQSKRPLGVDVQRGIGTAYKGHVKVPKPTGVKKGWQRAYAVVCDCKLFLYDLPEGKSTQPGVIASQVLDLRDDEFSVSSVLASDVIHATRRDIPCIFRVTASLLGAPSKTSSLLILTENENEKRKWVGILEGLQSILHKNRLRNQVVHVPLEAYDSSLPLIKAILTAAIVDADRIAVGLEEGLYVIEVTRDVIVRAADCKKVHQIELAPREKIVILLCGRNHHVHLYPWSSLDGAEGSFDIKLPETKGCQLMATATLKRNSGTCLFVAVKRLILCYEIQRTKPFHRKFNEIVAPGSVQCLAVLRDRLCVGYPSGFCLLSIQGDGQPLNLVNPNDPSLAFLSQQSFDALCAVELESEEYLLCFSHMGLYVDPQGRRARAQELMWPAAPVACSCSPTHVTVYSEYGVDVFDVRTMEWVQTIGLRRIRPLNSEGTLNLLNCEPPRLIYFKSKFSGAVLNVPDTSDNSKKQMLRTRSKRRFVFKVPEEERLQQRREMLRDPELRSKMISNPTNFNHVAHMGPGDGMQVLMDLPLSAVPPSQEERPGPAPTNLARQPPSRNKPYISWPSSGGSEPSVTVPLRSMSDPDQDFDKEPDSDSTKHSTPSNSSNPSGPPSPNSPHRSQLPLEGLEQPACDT

[33] = target: Serine/threonine-protein kinase BRSK2 (Homo sapiens) (UniProt Q8IWQ3); assay: Inhibition of BRSK2 (unknown origin) at 1 uM by mobility shift microfluidics platform based assay relative to control
[34] = target: Fibroblast growth factor receptor 2 (Homo sapiens) (UniProt P21802); assay: Inhibition of FGFR2 (unknown origin) at 1 uM by mobility shift microfluidics platform based assay relative to control

Row | Structure (SMILES) | inhibition [1] [%] | inhibition [2] [%] | inhibition [3] [%] | inhibition [4] [%] | inhibition [5] [%] | inhibition [6] [%] | inhibition [7] [%] | inhibition [8] [%] | inhibition [9] [%] | inhibition [10] [%] | inhibition [11] [%] | inhibition [12] [%] | inhibition [13] [%] | inhibition [14] [%] | inhibition [15] [%] | inhibition [16] [%] | inhibition [17] [%] | inhibition [18] [%] | inhibition [19] [%] | IC50 [20] [nM] | other results
1 | CC(C)n1nc(C#Cc2cccc(NC(=O)c3cccc(C(F)(F)F)c3)c2)c2c(N)ncnc21 | 40 | 99 | 1 | 100 | -2 | 4 | 62 | 37 | 26 | 2 | -2 | 92 | -1 | -8 | 71 | 0 | -8 | 6 | 97 | 4 | inhibition [21]: 9%; inhibition [22]: 0%; solubility at 24 h [23]: 161 µM (≈ 74.8 µg/mL); inhibition [24]: 100%; inhibition [25]: 1%; inhibition [26]: -1%; inhibition [27]: -4%; inhibition [28]: 2%; inhibition [29]: 2%; inhibition [30]: -1%; inhibition [31]: -1%; inhibition [32]: -1%; inhibition [33]: -3%; inhibition [34]: 99%
2 | CC(C)n1nc(C#Cc2cccc3cc(-c4cccc(C(F)(F)F)c4)ncc23)c2c(N)ncnc21 | 2 | 97 | 2 | 90 | -3 | 8 | 5 | 33 | -3 | 3 | -2 | 18 | 1 | 3 | 5 | -2 | 4 | 1 | 86 | 65 | inhibition [21]: 1%; inhibition [22]: -1%; solubility at 24 h [23]: 60 µM (≈ 28.3 µg/mL); inhibition [24]: 95%; inhibition [25]: 2%; inhibition [26]: 2%; inhibition [27]: -1%; inhibition [28]: 3%; inhibition [29]: 4%; inhibition [30]: -7%; inhibition [31]: 1%; inhibition [32]: 1%; inhibition [33]: 0%; inhibition [34]: 96%
